Assay results taken from patent US10227331B2 (priority 2015, dated 2019).

Assays:
[1] = biological target: VIM-1 (Pseudomonas aeruginosa (strain ATCC 15692 / DSM 22644 / CIP 104116 / JCM 14847 / LMG 12228 / 1C / PRS 101 / PAO1), UniProt A0A0F7KYQ8); assay: biochemical; settings: CCF2-FA substrate, 2 hours at 25° C
In short: (§1)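 Inhibitor was mixed with the metallo-β-lactamase and CCF2-FA. After 2 hours at 25° C, fluorescence of the coumarin–fluorescein cephalosporin substrate was read. IC50 was calculated with a 4-parameter fit.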

[2] = tested on: P. aeruginosa expressing IMP-1, efflux+ (MB9798); type: cell-based, Pseudomonas aeruginosa; settings: for P. aeruginosa expressing IMP-1, efflux+ (MB9798) MITC95: imipenem at 2 μg/mL, in the presence of a class A, C, D serine β-lactamase inhibitor closely related to relebactam; for Efflux ratio: ratio MITC95 PA_9798/MITC95 PA_9799
From the text: (§2) The strain background is Pseudomonas aeruginosa PAO1.

[3] = tested on: P. aeruginosa expressing IMP-1, efflux− (MB9799); assay: Efflux: concentration of MBL inhibitor which restores susceptibility to imipenem; type: cell-based, Pseudomonas aeruginosa; settings: imipenem at 2 μg/mL, in the presence of a class A, C, D serine β-lactamase inhibitor closely related to relebactam
From the text: as §2

[4] = biological target: IMP-1 (Serratia marcescens, UniProt P52699); assay: biochemical; type: biochemical; settings: CCF2-FA substrate, 2 hours at 25° C; read-out: IMP-1 IC50
In short: as §1

[5] = biological target: NDM-1 (Klebsiella pneumoniae, UniProt C7C422); assay: biochemical; type: biochemical; settings: CCF2-FA substrate, 2 hours at 25° C; read-out: NDM-1 IC50
In short: as §1

[6] = tested on: Klebsiella pneumoniae expressing VIM-1 (IHMA599644); type: cell-based; settings: with imipenem 1 μg/ml, 95% inhibition of bacterial growth; for Klebsiella pneumoniae MITC95: VIM-1 (IHMA599644)
In short: (§3)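 Colonies from overnight 35 °C blood-agar cultures were suspended in saline, diluted 1:100 into 1.1× CAMHB and exposed to test compound with or without imipenem at 1 μg/ml. After 22–24 h at 35 °C, absorbance was read to find the concentration restoring imipenem susceptibility.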

[7] = tested on: Serratia marcescens expressing IMP-1 (CL5741); type: cell-based; settings: with imipenem 1 μg/ml, 95% inhibition of bacterial growth; for Serratia marcescens MITC95: IMP-1 (CL5741)
In short: as §3

[8] = tested on: Escherichia coli expressing NDM-1 (CLB30005, CLB30016); type: cell-based; settings: with imipenem 1 μg/ml, 95% inhibition of bacterial growth; for Escherichia coli MITC95: NDM-1 (CLB30016)
In short: as §3

Chain of NDM-1 (C7C422 whole entry, looked up, species assumed): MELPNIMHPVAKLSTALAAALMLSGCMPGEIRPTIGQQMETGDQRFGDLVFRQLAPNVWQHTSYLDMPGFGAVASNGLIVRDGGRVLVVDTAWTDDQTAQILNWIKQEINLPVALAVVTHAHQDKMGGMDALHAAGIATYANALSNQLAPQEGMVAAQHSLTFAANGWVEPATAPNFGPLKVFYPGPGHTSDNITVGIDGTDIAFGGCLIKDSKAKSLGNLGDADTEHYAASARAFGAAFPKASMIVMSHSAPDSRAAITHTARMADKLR
Chain of IMP-1 (P52699 whole entry, looked up, species assumed): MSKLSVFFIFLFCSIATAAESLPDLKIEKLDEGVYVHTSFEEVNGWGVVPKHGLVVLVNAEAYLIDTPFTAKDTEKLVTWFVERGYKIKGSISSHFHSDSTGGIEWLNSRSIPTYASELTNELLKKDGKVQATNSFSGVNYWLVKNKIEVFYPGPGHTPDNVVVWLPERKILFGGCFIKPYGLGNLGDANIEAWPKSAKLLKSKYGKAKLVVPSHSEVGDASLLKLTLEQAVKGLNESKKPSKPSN

| Compound | IC50 [1] | P. aeruginosa expressing IMP-1, efflux+ (MB9798) MITC95 [2] | Efflux ratio [2] | P. aeruginosa expressing IMP-1, efflux− (MB9799) MITC95 [3] | IC50 [4] | IC50 [5] | Klebsiella pneumoniae expressing VIM-1 (IHMA599644) MITC95 [6] | Serratia marcescens expressing IMP-1 (CL5741) MITC95 [7] | Escherichia coli expressing NDM-1 (CLB30016) MITC95 [8] | Klebsiella pneumoniae MITC95 [6] | Serratia marcescens MITC95 [7] | Escherichia coli MITC95 [8] |
| --- | --- | --- | --- | --- | --- | --- | --- | --- | --- | --- | --- | --- |
| COc1ccc(Cc2cc3c(-c4ccc(S(=O)(=O)C5CNC5)c(S(N)(=O)=O)c4-c4nnn[nH]4)cccc3[nH]2)cc1 [Example 231, 6-(azetidin-3-ylsulfonyl)-3-(2-(4-methoxybenzyl)-1H-indol-4-yl)-2-(1H-tetrazol-5-yl)benzenesulfonamide] | 558 pM | 25 µM | 8.00 | 3.125 µM | 717 pM | 102 pM | 12.5 µM | 6.25 µM | 6.25 µM |  |  |  |
| Cn1ncc2c(-c3ccc(S(=O)(=O)C4CNC4)c(S(N)(=O)=O)c3-c3nnn[nH]3)cccc21.O=C(O)C(F)(F)F [Example 123, 3-((4-(1-methyl-1H-indazol-4-yl)-2-sulfamoyl-3-(1H-tetrazol-5-yl)phenyl)sulfonyl)azetidin-1-ium 2,2,2-trifluoroacetate] | 215 pM | 25 µM | 15.99 | 1.563 µM | 1140 pM | 168 pM | 3.125 µM | 3.125 µM | 1.563 µM |  |  |  |
| NCCS(=O)(=O)c1ccc(-c2cccc(-n3ccnc3)c2)c(-c2nnn[nH]2)c1S(N)(=O)=O [Example 345, 4-((2-Aminoethyl)sulfonyl)-3′-(1H-imidazol-1-yl)-2-(1H-tetrazol-5-yl)-[1,1′-biphenyl]-3-sulfonamide] | 434 pM | 25 µM | 32.00 | 0.7813 µM | 857 pM | 1960 pM |  |  |  | 3.125 µM | 1.563 µM | 0.7813 µM |
| Nc1nc2c(-c3ccc(S(=O)(=O)C4CNC4)c(S(N)(=O)=O)c3-c3nn[nH]n3)cccc2s1 [Example 317, 3-(2-aminobenzo[d]thiazol-4-yl)-6-(azetidin-3-ylsulfonyl)-2-(2H-tetrazol-5-yl)benzenesulfonamide] | 189 pM | 0.7813 µM | 1.00 | 0.7813 µM | 227 pM | 31.2 pM |  |  |  | 1.563 µM | 0.7813 µM | 1.172 µM |
| NC[C@@H](O)CS(=O)(=O)c1ccc(-c2cc(I)cc3[nH]c(N)nc23)c(-c2nn[nH]n2)c1S(N)(=O)=O [Example 379, (R)-6-((3-amino-2-hydroxypropyl)sulfonyl)-3-(2-amino-6-iodo-1H-benzo[d]imidazol-4-yl)-2-(2H-tetrazol-5-yl)benzenesulfonamide] | 123 pM | 0.3906 µM | 0.50 | 0.7813 µM | 170 pM | 80.9 pM |  |  |  | 1.563 µM | 0.7813 µM | 0.7813 µM |
| C[C@@H](CN)S(=O)(=O)c1ccc(-c2cccc3sc(N)nc23)c(-c2nn[nH]n2)c1S(N)(=O)=O [Example 286, 3-(2-aminobenzo[d]thiazol-4-yl)-6-((S)-1-aminopropan-2-ylsulfonyl)-2-(2H-tetrazol-5-yl)benzenesulfonamide] | 265 pM | 1.563 µM | 2.00 | 0.7813 µM | 323 pM | 93.4 pM |  |  |  | 1.563 µM | 0.7813 µM | 0.7813 µM |
| Nc1nc2c(-c3ccc(S(=O)(=O)C4CNC4)c(S(N)(=O)=O)c3-c3nn[nH]n3)cccn2n1 [Example 216, 3-(2-amino-[,2,4]triazolo[1,5-a]pyridin-8-yl)-6-(azetidin-3-ylsulfonyl)-2-(2H-tetrazol-5-yl)benzenesulfonamide] | 151 pM | 6.25 µM | 4.00 | 1.563 µM | 1660 pM | 102 pM | 6.25 µM | 3.125 µM | 12.5 µM |  |  |  |
| NS(=O)(=O)c1c(S(=O)(=O)CC2CNC2)ccc([C@H]2CC[C@@H](N)CC2)c1-c1nnn[nH]1 [Example 205, 3-((1s, 4s)-4-aminocyclohexyl)-6-((azetidin-3-ylmethyl)sulfonyl)-2-(1H-tetrazol-5-yl)benzenesulfonamide] | 6640 pM | 6.25 µM | 2.00 | 3.125 µM | 82500 pM | 44600 pM | 3.125 µM | 3.125 µM | 1.563 µM |  |  |  |
| Cn1c(N)nc2c(-c3ccc(S(=O)(=O)CCCN)c(S(N)(=O)=O)c3-c3nn[nH]n3)cccc21 [Example 195, 3-(2-amino-1-methyl-1H-benzo[d]imidazol-4-yl)-6-(3-aminopropylsulfonyl)-2-(2H-tetrazol-5-yl)benzenesulfonamide] | 155 pM | 0.7813 µM | 1.00 | 0.7813 µM | 250 pM | 260 pM | 1.563 µM | 0.7813 µM | 0.3906 µM |  |  |  |
| Nc1nc2c(-c3ccc(S(=O)(=O)[C@@H]4CCNC4)c(S(N)(=O)=O)c3-c3nn[nH]n3)cccc2o1 [Example 189, 3-(2-aminobenzo[d]oxazol-4-yl)-6-((R)-pyrrolidin-3-ylsulfonyl)-2-(2H-tetrazol-5-yl)benzenesulfonamide] | 420 pM | 0.7813 µM | 1.00 | 0.7813 µM | 332 pM | 219 pM | 1.563 µM | 1.563 µM | 1.563 µM |  |  |  |
| Nc1nc2c(-c3ccc(S(=O)(=O)CCN4CCOCC4=O)c(S(N)(=O)=O)c3-c3nn[nH]n3)cccc2s1 [Example 259, 3-(2-aminobenzo[d]thiazol-4-yl)-6-((2-(3-oxomorpholino)ethyl)sulfonyl)-2-(2H-tetrazol-5-yl)benzenesulfonamide] | 245 pM | 12.5 µM | 2.00 | 6.25 µM | 349 pM | 167 pM |  |  |  | 25 µM | 12.5 µM | 25 µM |
| NCCS(=O)(=O)c1ccc(-c2ccc3oc(N)nc3c2)c(-c2nn[nH]n2)c1S(N)(=O)=O [Example 77, 3-(2-aminobenzo[d]oxazol-5-yl)-6-(2-aminoethylsulfonyl)-2-(2H-tetrazol-5-yl)benzenesulfonamide] | 384 pM | 6.25 µM | 8.00 | 0.7813 µM | 1130 pM | 1050 pM | 1.563 µM | 1.563 µM | 0.7813 µM |  |  |  |
| NCC(O)CS(=O)(=O)c1ccc(-c2cccc3sc(N)nc23)c(-c2nn[nH]n2)c1S(N)(=O)=O (centres unmarked) [Example 97, 6-(3-amino-2-hydroxypropylsulfonyl)-3-(2-aminobenzo[d]thiazol-4-yl)-2-(2H-tetrazol-5-yl)benzenesulfonamide] | 249 pM | 0.3906 µM |  | 0.7813 µM | 171 pM | 64.5 pM | 1.563 µM | 1.563 µM | 0.7813 µM |  |  |  |
